Reference: US8415152B2, “Therapeutical composition containing dentritic cells and use thereof” (Helmholtz-Zentrum für Infektionsforschung GmbH, priority 2003, dated 2013)

What was measured:
Balb/c mice [1] = assay: Cytokines in BALF of OVA-sensitized and challenged mice (ELISA); type: in vivo, mouse; conditions: i.t. treatment day 27 (20 ng MALP-2, 10^4 U IFN-γ); 24 h after last allergen challenge
Method: Female Balb/c mice (Charles River, Sulzfeld, Germany) were used at the age of 6-8 weeks In all experiments. They were fed with ovalbumin-free laboratory food and tap water ad libitum and held in a regular 12 h dark/light cycle at a temperature of 22° C. Before experimental start, mice were acclimated for a period of 7 days.
(§1) Animals were sensitized and challenged as previously described (Glaab, T., A. Daser, A. Braun, U. Neuhaus-Steinmetz, H. Fabel, Y. Alarie, and H. Renz. 2001. Am. J. Physiol Lung Cell Mol. Physiol 280:L565-L573). Briefly, 10 μg ovalbumin (OVA, grade VI, Sigma, Müchen, Germany) was adsorbed to 1 mg Imject Alum (Pierce, Rockford, USA) in a total volume of 200 μl 0.9% NaCl solution and intraperitonealy injected three times on days 0, 14 and 21. Negative controls were injected with the solution lacking ovalbumin. All groups were subjected to inhalative allergen challenge on days 28 and 29. OVA-aerosols (grade V, Sigma) with a mean mass diameter of 1.49 μm were generated from a solution of 1 mg/ml OVA in 0.9% NaCl using a modified Pad Master system (Pari Werke, Sternberg, Germany) for 20 min. A lung deposition of approximately 8 μg OVA per mice in each session was calculated by a respiratory minute volume of 35 ml/min an a deposition factor of 0.15 as brought forward by Raabe et al. (Raabe, O. G., J. E. Bennick, M. E. Light, C. H. Hobbs, R. L. Thomas, and M. I. Tillery. 1973. Toxicol. Appl. Pharmacol. 26:264-273). 3 gives the test groups.
(§2) The trachea was canulated under direct vision, and a total volume of 50 μl containing the substances was instillated using a syringe.
(§3) Mice were killed with an i.p. injected overdose of pentobarbital-Na (Menial, Halbergmoos, Germany) after the lung function. In a satellite group, mice were left untouched after the last allergen challenge and kept for another 7 days. Afterwards, they were dissected in the same way as the main groups as follows. Blood was obtained via punction of the vena cava. Red blood cells were lysed by incubation with 0.9% NH4Cl (Sigma) in H2O for 10 min, white blood cells were automatically counted using an AcT8 counter (Beckman Coulter, Krefeld, Germany) and cytospins were prepared for differential cell count. The trachea was canulated and broncho-alveolar lavage (BAL) was performed with 0.8 ml ice cold saline two times. BAL cells were separated by centrifugation, counted and cytospins were prepared as described above. The BAL fluid (BALF) was aliquoted, shock frozen in liquid nitrogen and stored at −80° C. until the determination of cytokines. After BAL, the lungs were filled with Tissue-Tek O.C.T. (Sakura Finetek, Zoeterwoude, Netherlands) diluted 1:2 in PBS and the trachea was ligated. Next, the right lungs were excised, subsequently shock frozen in liquid nitrogen and stored at −80° C. for histology.
Duo-Set ELISA kits for the detection of IL-4, IL-5, IL-13 and IL-12p70 in the BAL supernatant were used (R&D Systems, Wiesbaden, Germany) according to the manufacturer's instructions.

Balb/c mice [2] = assay: Differential cell count of BAL and blood, OVA-sensitized mice; type: in vivo, mouse; conditions: i.t. treatment day 27; 24 h after last allergen challenge
Method: as §1, §2, §3
Cytospins were stained applying the Pappenheim method according to standard protocols. […] 300 cells of each sample were determined, and absolute counts of macrophages, lymphocytes, eosinophilic and neutrophilic granulocytes were calculated.

autologous lymphocytes [3] = assay: Proliferation assay (3H-thymidine) in coculture of DC and autologous lymphocytes; type: cell-based, human; conditions: DC of allergics, allergen pulsed, 3H-thymidine day 12 for 18 hours
Method: A portion of DC was used for coculture experiments with autologous lymphocytes from day 7 to day 13. To remove free stimulants, DC were harvested and washed twice. The cells were titrated in fresh medium in fresh round-bottom microtiterplates. 1×10^5 vital cryopreserved autologous lymphocytes were added at ratios of DC to lymphocytes from 1:3 to 1:2187 in a final volume of 200 μl in serum-free XVIVO-15. No further stimulants were given.
The coculture was pulsed with 5 μCi/ml ^3H-thymidine (Amersham Buchler, Braunschweig, Germany) on day 12. After 18 hours, the cells were harvested on filtermats (Canberra-Packard, Dreieich, Germany). After drying, 20 μl of liquid scintillator (Can berra-Packard) were added and the plates were sealed. Counts per minute were determined on a Topcount Microplate Scintillation Counter (Can berra-Packard).

monocyte derived DC = assay: Cytokines in DC culture supernatant (ELISA); type: cell-based, human; conditions: day 7 of culture; for IL-10 production in DC culture supernatant / IL-12p70 production in DC culture supernatant: compared to untreated DC
Method: Monocyte derived DC were generated as previously described (Weigt et al. Immunobiol. 207, 223-233 (2003). Briefly, blood was centrifuged to remove platelets, diluted and layered over Ficoll-Paque (Amersham Pharmacia, Uppsala, Sweden). After density gradient centrifugation, PBMC were collected, and monocytes were enriched using the MACS system and anti-CD14 beads (Miltenyi Biotec, Bergisch Gladbach, Germany). The CD14 positive fraction (monocytes) was cultured in the serum-free medium X-VIVO 15 supplemented with 100 U/ml penicillin and […] streptomycin (all BioWhittaker, Verviers, Belgium). The CD14 negative fraction containing the lymphocytes was cryopreserved in 90% FCS (GIBCO, Eggenstein-Leopoldhafen, Germany) and 10% DMSO (SIGMA, Taufkirchen, Germany). On day 1 and day 5 after isolation, 800 U/m of recombinant GM-CSF and 500 U/ml of recombinant IL-4 (Strathmann Biotec, Hamburg, Germany) were added to the monocyte culture to induce DC.
On day 5 of the culture, DC were pulsed with affinity purified house dust mite allergen adjusted to a concentration of 100 ng/ml of DerP1 or with PBS as control. […] The respective optimal concentrations were experimentally determined using the highest expression of stimulatory cell surface molecules as read-out system. The substances were incubated on the cells for 48 hours.
Cytokine concentrations were determined in DC culture supernatant collected on day 7 (TNF-α, IL-10, IL-12) and in the supernatant of the coculture of DC and autologous lymphocytes collected on day 10 (IFN-γ, IL-4). Duo-Set ELISA kits for the detection of IL-12p70, IL-10, TNF, IFN-γ, IL-4 and IL-5 were purchased (R&D Systems, Wiesbaden, Germany) and performed according to the manufacturers instructions.

autologous lymphocytes [4] = conditions: DC treated in vitro; Weigt et al. 2003; cited from earlier work

| Substance | IL-4 in BALF (Balb/c mice [1]) | IL-5 and IL-13 in BALF (Balb/c mice [1]) | IL-12p70 in BALF (Balb/c mice [1]) | Eosinophils in BAL (Balb/c mice [2]) | Number of BAL lymphocytes (Balb/c mice [2]) | Lymphocyte proliferation (autologous lymphocytes [3]) | TNF production in DC culture supernatant (monocyte derived DC) | IL-10 production in DC culture supernatant (monocyte derived DC) | IL-12p70 production in DC culture supernatant (monocyte derived DC) | Polarization of lymphocytes into T-helper (Th-1) cells (autologous lymphocytes [4]) | Proliferation of autologous lymphocytes (autologous lymphocytes [4]) |
| --- | --- | --- | --- | --- | --- | --- | --- | --- | --- | --- | --- |
| IFN-γ: interferon gamma, IFNγ receptor agonist (Strathmann Biotec) | did not affect IL-4 | reduced the levels of IL-5 and IL-13 | failed to induce IL-12p70 | raised the eosinophil counts even further | increased | increased proliferation | comparable moderate release | did not influence | did not influence |  |  |
| macrophage activating lipopeptide-2 [MALP-2, reference compound] | reduce all Th2-markers to the level of the unsensitized negative control | reduce all Th2-markers to the level of the unsensitized negative control | did not amplify IL-12p70 | raised the eosinophil counts even further | increased | exceeded by MALP-2 | comparable moderate release | induced IL-10 | no effect on IL-12 | no significant polarization | marked proliferation |
